Test results from patent US6495118B1, “Lipophilic metal complexes for necrosis and infarction imaging” (Schering Aktiengesellschaft, priority 1997, dated 2002).

Key:
plasma protein = conditions: cited from earlier work
[1] = test system: rats with induced renal infarctions (necrotic area of the kidney); experiment: MRI experiments on animals with induced renal infarctions; assay type: in vivo; conditions: rat
Experimental: Plasma protein bond: 10% (Europ. Workshop on Magn. Reson. in Medicine, Santiago de Compostela, Spain, Sep. 28-30, 1994).
The induction of the renal infarctions was carried out on anesthetized (Rompun®/Ketavet®, i.p.) rats (Han. Wistar, Schering SPF, about 200 g of body weight) by occlusion of a (caudal) branch of the left renal artery. The contrast medium was administered (dose: 300 or 500 μmol of Gd/kg of body weight) about 24 hours after the induction of infarction. The animals were studied before and up to 24 hours after contrast medium administration by MR-tomography (SISCO SIS 85, 2 tesla; SE sequence, TR: 400 ms, TE: 15 ms, nt=4, ni=128, FOV: 12-7 cm, SD≈3 mm, 1 layer each axial or coronary).
After the MRI experiments were completed, the anesthetized animals were sacrificed by exsanguination (via the V. cava), and both kidneys were prepared. To verify the infarction (size and position), the left (infarcted) kidney was removed and sliced into disks, and then NBT (“vital”) coloring was carried out.

CCOc1ccc(CC(CN(CCN(CC(=O)[O-])CC(=O)[O-])CC(=O)[O-])N(CC(=O)[O-])CC(=O)[O-])cc1.[Gd+3].[Na+].[Na+] (centres unmarked) [Eovist]
Plasma protein bond (plasma protein): 10% | MRI appearance of nonperfused portion of the kidneys ([1]; 300 or 500 μmol of Gd/kg i.v., immediately after substance administration): hypointense area | MRI signal (enhancement) in the necrotic area of the kidneys ([1]; 300 or 500 μmol of Gd/kg i.v., late phase (about 4-6 hours p.i.), all animals studied): considerable signal increase (enhancement) | MRI signal intensity in the non-perfused area ([1]; 300 or 500 μmol of Gd/kg i.v., starting at about 15-30 minutes p.i.): increased somewhat | Correlation of MRI delineation of the necrotic area with histological vital (NBT) coloring ([1]; infarcted left kidney): correlated very well
